Source: patent publication US4153710A, “N-(4-[2-(pyrazole-1-carbonamide)-ethyl]-benzenesulphonyl)-urea” (Starogardzkie Zaklady Farmaceutyczne POLFA, priority 1976, dated 1979)

System: blood-glucose concentration
Test: Decrease in blood-glucose concentration in rats after oral dose (Table 1; ED30 rats Table 2)
Format: in vivo
Conditions: Rattus norvegicus, po; for inhibition in vivo at 1 mg/kg: p.os. 1 mg/kg; for inhibition in vivo at 2 mg/kg: p.os. 2 mg/kg; for inhibition in vivo at 4 mg/kg: p.os. 4 mg/kg; for inhibition in vivo at 10 mg/kg: p.os. 10 mg/kg; for ED50: p.os., Table 1; for inhibition in vivo at 50 mg/kg: p.os. 50 mg/kg; for inhibition in vivo at 5 mg/kg: p.os. 5 mg/kg; for inhibition in vivo at 20 mg/kg: p.os. 20 mg/kg; for inhibition in vivo at 0.5 mg/kg: p.os. 0.5 mg/kg; for inhibition in vivo at 0.25 mg/kg: p.os. 0.25 mg/kg
From the text: The hypoglycemic activity of N-{4-[2-(pyrazole-1-carbonamide)-ethyl]-benzenesulphonyl}-ureas prepared according to the present invention can be noticed after their oral administration to mice, rats, rabbits and people and when determining the glucose concentration in blood with a known enzymatic method using glucose oxidase.
The exemplary comparison of effective doses (ED30) and the effect of oral dose size of the compounds prepared according to the present invention with Glibornuride, which is distinguished by its high effectiveness and good tolerance when administered to people, on the glucose concentration in the blood of rats, is given in Table 1.

Compound	inhibition in vivo at 1 mg/kg (1 h) [%]	inhibition in vivo at 1 mg/kg (3 h) [%]	inhibition in vivo at 1 mg/kg (6 h) [%]	inhibition in vivo at 2 mg/kg (1 h) [%]	inhibition in vivo at 2 mg/kg (3 h) [%]	inhibition in vivo at 2 mg/kg (6 h) [%]	inhibition in vivo at 4 mg/kg (1 h) [%]	inhibition in vivo at 4 mg/kg (3 h) [%]	inhibition in vivo at 10 mg/kg (1 h) [%]	inhibition in vivo at 10 mg/kg (3 h) [%]	inhibition in vivo at 10 mg/kg (6 h) [%]	ED50 [mg/kg]	inhibition in vivo at 4 mg/kg (6 h) [%]	other results
Cc1cnn(C(=O)NCCc2ccc(S(=O)(=O)NC(=O)NC3CCCCC3)cc2)c1 [compound 3]	20	18	4	35	28	2	33	32	52	48	37	1.9		
CCc1c(C)nn(C(=O)NCCc2ccc(S(=O)(=O)NC(=O)NC3CCCCC3)cc2)c1C [compound 11]							16	27	29	53		4.8	3	inhibition in vivo at 50 mg/kg (1 h): 57%; inhibition in vivo at 50 mg/kg (3 h): 60%; inhibition in vivo at 50 mg/kg (6 h): 53%
O=C(NC1CCCC1)NS(=O)(=O)c1ccc(CCNC(=O)n2cccn2)cc1 [compound 15]							14	5	20	16	7			
CCCNC(=O)NS(=O)(=O)c1ccc(CCNC(=O)n2ccc(C)n2)cc1 [compound 22]				4	26	23			25	29	35			inhibition in vivo at 5 mg/kg (1 h): 15%; inhibition in vivo at 5 mg/kg (3 h): 24%; inhibition in vivo at 5 mg/kg (6 h): 26%; inhibition in vivo at 20 mg/kg (1 h): 45%; inhibition in vivo at 20 mg/kg (3 h): 56%; inhibition in vivo at 20 mg/kg (6 h): 56%; inhibition in vivo at 50 mg/kg (1 h): 54%; inhibition in vivo at 50 mg/kg (3 h): 55%; inhibition in vivo at 50 mg/kg (6 h): 48%
O=C(NC1CCCCC1)NS(=O)(=O)c1ccc(CCNC(=O)n2cc(Cl)cn2)cc1 [compound 5]									16	0				inhibition in vivo at 50 mg/kg (1 h): 38%; inhibition in vivo at 50 mg/kg (3 h): 36%; inhibition in vivo at 50 mg/kg (6 h): 12%
CCc1cnn(C(=O)NCCc2ccc(S(=O)(=O)NC(=O)NC3CCCCC3)cc2)c1 [compound 4]	28	4	0	46	18	1	40	32	55	39	25	1.6		
Cc1ccn(C(=O)NCCc2ccc(S(=O)(=O)NC(=O)NC3CCCCC3)cc2)n1 [compound 2]	19	9	0	23	27	14	30	45				2.2	21	
Cc1nn(C(=O)NCCc2ccc(S(=O)(=O)NC(=O)NC3CCCCC3)cc2)cc1Cl [compound 9]									24	7	0			
CCCCNC(=O)NS(=O)(=O)c1ccc(CCNC(=O)n2ccc(C)n2)cc1 [compound 21]	23	23	22						55	53	56			inhibition in vivo at 0.5 mg/kg (1 h): 6%; inhibition in vivo at 0.5 mg/kg (3 h): 22%; inhibition in vivo at 0.5 mg/kg (6 h): 29%; inhibition in vivo at 5 mg/kg (1 h): 22%; inhibition in vivo at 5 mg/kg (3 h): 38%; inhibition in vivo at 5 mg/kg (6 h): 43%; inhibition in vivo at 20 mg/kg (1 h): 50%; inhibition in vivo at 20 mg/kg (3 h): 55%; inhibition in vivo at 20 mg/kg (6 h): 56%
CCc1nn(C(=O)NCCc2ccc(S(=O)(=O)NC(=O)NC3CCCCC3)cc2)cc1C [compound 8]	17	18	15				19	31	27	45	25	4	15	
O=C(NC1CCCCC1)NS(=O)(=O)c1ccc(CCNC(=O)n2cccn2)cc1 [compound 1]	27	27	14	23	34	11	19	37	50	52	29	1.8		inhibition in vivo at 0.25 mg/kg (1 h): 12%; inhibition in vivo at 0.25 mg/kg (3 h): 19%; inhibition in vivo at 0.25 mg/kg (6 h): 0%; inhibition in vivo at 0.5 mg/kg (1 h): 21%; inhibition in vivo at 0.5 mg/kg (3 h): 19%; inhibition in vivo at 0.5 mg/kg (6 h): 11%
Cc1cn(C(=O)NCCc2ccc(S(=O)(=O)NC(=O)NC3CCCCC3)cc2)nc1C [compound 7]				18	24	19			37	54	26	3.3		inhibition in vivo at 0.25 mg/kg (1 h): 11%; inhibition in vivo at 0.25 mg/kg (3 h): 17%; inhibition in vivo at 0.25 mg/kg (6 h): 11%; inhibition in vivo at 0.5 mg/kg (1 h): 19%; inhibition in vivo at 0.5 mg/kg (3 h): 29%; inhibition in vivo at 0.5 mg/kg (6 h): 20%
Cc1cnn(C(=O)NCCc2ccc(S(=O)(=O)NC(=O)NC3CCCC3)cc2)c1 [compound 17]				29	16	5	41	41	41	51	28	2.3	23	
CCCCc1c(C)nn(C(=O)NCCc2ccc(S(=O)(=O)NC(=O)NC3CCCCC3)cc2)c1C [compound 13]									0					inhibition in vivo at 50 mg/kg (1 h): 18%; inhibition in vivo at 50 mg/kg (3 h): 27%; inhibition in vivo at 50 mg/kg (6 h): 3%
Cc1cc(C)n(C(=O)NCCc2ccc(S(=O)(=O)NC(=O)NC3CCCCC3)cc2)n1 [compound 6]							18	33	23	40	35	3.5	23	
CCCc1c(C)nn(C(=O)NCCc2ccc(S(=O)(=O)NC(=O)NC3CCCCC3)cc2)c1C [compound 12]									14		10			inhibition in vivo at 50 mg/kg (1 h): 22%; inhibition in vivo at 50 mg/kg (3 h): 39%; inhibition in vivo at 50 mg/kg (6 h): 32%
Cc1nn(C(=O)NCCc2ccc(S(=O)(=O)NC(=O)NC3CCCCC3)cc2)c(C)c1Cl [compound 14]	11	21	7	14	24	14	21	29				5	11	
